In patent US9174948B2, “Desferrithiocin polyether analogues” (University of Florida Research Foundation, Inc., priority 2007, dated 2015):
Entries after “also recorded” stand apart in the source; their conditions may differ. Where two headings read alike, the source gives them in different places. Marks after values point to notes of the source that are not given here.

Assays:
[1] = earlier preclinical studies; cited from earlier work
[2] = target: Sudlow types I and II albumin binding sites (Rattus norvegicus, UniProt P02770); test: Ligand-albumin binding in bile duct-cannulated rodents treated with sodium benzoate; settings: rats; for Iron-Clearing Efficiency (%): chelator 300 μmol/kg po plus sodium benzoate 250 mg/kg/dose sc × 6 doses; for fold increase in ICE with sodium benzoate: chelator 300 μmol/kg po, with vs without sodium benzoate
Chain of Sudlow types I and II albumin binding sites (P02770 25-608): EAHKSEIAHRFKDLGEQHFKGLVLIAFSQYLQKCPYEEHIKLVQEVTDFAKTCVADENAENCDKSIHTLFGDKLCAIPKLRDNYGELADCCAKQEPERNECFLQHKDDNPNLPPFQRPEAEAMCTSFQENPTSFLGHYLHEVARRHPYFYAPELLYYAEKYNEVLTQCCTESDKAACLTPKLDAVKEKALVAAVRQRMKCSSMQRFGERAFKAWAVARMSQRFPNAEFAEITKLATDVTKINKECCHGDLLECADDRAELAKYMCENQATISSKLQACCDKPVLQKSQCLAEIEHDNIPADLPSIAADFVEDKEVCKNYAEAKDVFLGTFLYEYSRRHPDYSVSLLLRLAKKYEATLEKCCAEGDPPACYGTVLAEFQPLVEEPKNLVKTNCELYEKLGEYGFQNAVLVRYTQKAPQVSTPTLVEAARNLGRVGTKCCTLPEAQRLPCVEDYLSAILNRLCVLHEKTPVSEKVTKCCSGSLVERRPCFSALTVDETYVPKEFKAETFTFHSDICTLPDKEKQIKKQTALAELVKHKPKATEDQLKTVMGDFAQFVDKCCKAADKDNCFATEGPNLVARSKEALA
Description: We elected to focus on a drug that is under clinical trials with Genzyme, (S)-4′-(HO)-DADFT (1).

[3] = test system: Iron-Overloaded Cebus apella Primates; settings: po, cited from earlier work; for Iron-Clearing Efficiency (%): Cebus apella, 150 μmol/kg, historical data
[4] = test system: Non-Iron-Overloaded Rodents; settings: po, cited from earlier work; for Iron-Clearing Efficiency (%): rats, 300 μmol/kg, historical data
[5] = Chelator tissue distribution in rodents; assay type: in vivo, rat (male Sprague-Dawley); settings: rats, sc, 300 μmol/kg
Description: Collection of Tissue Distribution Samples from Rodents: Male Sprague-Dawley rats (250-350 g) were given a single sc injection of the monosodium salts of 6 and 9 prepared as described above at a dose of 300 μmol/kg. At times 0.5, 1, 2, and 4 h after dosing (n=3 rats per time point) the animals were euthanized by exposure to CO2 gas. Blood was obtained via cardiac puncture into vacutainers containing sodium citrate. The blood was centrifuged, and the plasma was separated for analysis. The liver, heart, kidneys, and pancreas were then removed from the animals. […] J. Med. Chem. 2006, 49, 2772-2783]. In the current study, tissues from the (S)-3′-(HO)-DADFT-PE (9) and (S)-5′-(HO)-DADFT-PE (6) treated rats were prepared for HPLC analysis by homogenizing them in 0.5 N HClO4 at a ratio of 1:3 (w/v). Then, as a rinse, CH3OH at a ratio of 1:3 (w/v) was added and the mixture was stored at −20° C. for 30 min. This homogenate was centrifuged. The supernatant was diluted with mobile phase A (95% buffer [25 mM KH2PO4, pH 3.0]/5% CH3CN), vortexed, and filtered with a 0.2 μm membrane. Analytical separation was performed on a Discovery RP Amide C16 HPLC system with UV detection at 310 nm as described previously [Bergeron, R. J., Wiegand, J., Weimar, W. R., McManis, J. S., Smith, R. E. and Abboud, K. A. Iron Chelation Promoted by Desazadesferrithiocin Analogues: An Enantioselective Barrier. Chirality 2003, 15, 593-599; Bergeron, R. J., Wiegand, J., Ratliff-Thompson, K. and Weimar, W. R. The Origin of the Differences in (R)- and (S)-Desmethyldesferrithiocin: Iron-Clearing Properties. Ann. N.Y. Acad. Sci. 1998, 850, 202-216]. Mobile phase and chromatographic conditions were as follows: solvent A, 5% CH3CN/95% buffer; solvent B, 60% CH3CN/40% buffer. The concentrations were calculated from the peak area fitted to calibration curves by nonweighted least-squares linear regression with Rainin Dynamax HPLC Method Manager software (Rainin Instrument Co.).

[6] = test system: kidney proximal and distal tubules; settings: rats, po, 237 μmol/kg/dose twice daily (474 μmol/kg/day) for 7 days; cited from earlier work
[7] = test system: Non-Iron-Overloaded Rodents; test: Chelator-induced iron clearance in non-iron-overloaded, bile duct-cannulated rats; assay type: in vivo, rat (male Sprague-Dawley); settings: po, 300 μmol/kg, 1 vs 3, 4 vs 6, 7 vs 9
Text: Chelator-Induced Iron Clearance in Non-Iron-Overloaded Rodents. […] J. Med. Chem. 2006, 49, 2772-2783]. Recall that iron-clearing efficiency (ICE) is defined as (net iron excretion)/(total iron-binding capacity of the chelator), expressed as a percent. The relative ICE values of compounds 1 and 2 were in keeping with their log Papp values: the more lipophilic, the larger log Papp, the more efficient the chelator. […] However, the ICE trend was in keeping with the biliary ferrokinetics (FIG. 3) and liver concentration of the chelators, for example, 3>1 (FIG. 4).
Cannulation of Bile Duct in Non-Iron-Overloaded Rats has been described previously. […]. […] The urine sample(s) was taken at 24 h intervals. Sample collection and handling are as previously described [Bergeron, R. J., Streiff, R. R., Creary, E. A., Daniels, R. D., Jr., King, W., Luchetta, G., Wiegand, J., Moerker, T. and Peter, H. H. A Comparative Study of the Iron-Clearing Properties of Desferrithiocin Analogues with Desferrioxamine B in a Cebus Monkey Model. Blood 1993, 81, 2166-2173; Bergeron, R. J., Streiff, R. R., Wiegand, J., Vinson, J. R. T., Luchetta, G., Evans, K. M., Peter, H. and Jenny, H.-B. A Comparative Evaluation of Iron Clearance Models. Ann. N.Y. Acad. Sci. 1990, 612, 378-393].
In the iron-clearing experiments, the rats were given a single 300 μmol/kg dose of drugs 1-9 orally (po).
J. Med. Chem. 1999, 42, 2432-2440].

[8] = 2:1 complex with Fe(III); cited from earlier work
[9] = listed as (S)-4′-(HO)-DADFT (1)
[10] = listed as (S)-4′-(HO)-DADFT-PE (3)

Row | SMILES | toxicity / nephrotoxicity in words [1] | Iron-Clearing Efficiency (%) [2] | fold increase in ICE with sodium benzoate [2] | Iron-Clearing Efficiency (%) [3] | Iron-Clearing Efficiency (%) [4] | kidney concentration ([5]; 0.5 h) | kidney concentration ([5]; 1 h) | kidney concentration ([5]; 4 h) | distal tubules under light microscopy [6] | proximal tubules under light microscopy [6] | other results
1 | C[C@]1(C(=O)O)CSC(c2ccc(O)cc2O)=N1 [Compound 1, (S)-2-(2,4-dihydroxyphenyl)-4,5-dihydro-4-methyl-4-thiazolecarboxylic acid] | no geno- or reproductive toxicity and only mild nephrotoxicity at high doses | 12.0±2.6% | 10.9 fold | 16.8±7.2% | 1.1±0.8% | 361±56 nmol/g wet weight | 179±4 nmol/g wet weight | 27±7 nmol/g wet weight | moderate to severe vacuolization | regional, moderate to severe vacuolization in the proximal tubules, a loss of the brush border, and tubular extrusions toward the lumen | Iron-Clearing Efficiency (%) [2, 9]: 12.0 ± 2.6^b %; Iron-Clearing Efficiency (%) [4, 9]: 1.1 ± 0.8%; pancreas concentration ([5]; 4 h): undetectable
2 | COCCOCCOCCOc1ccc(C2=N[C@@](C)(C(=O)O)CS2)c(O)c1 [Compound 3, (S)-4,5-dihydro-2-[2-hydroxy-4-(3,6,9-trioxadecyloxy)phenyl]-4-methyl-4-thiazolecarboxylic acid] | profoundly reduced nephrotoxicity; also recorded: profoundly less nephrotoxic | 8.8±2.4% | 1.6 fold | 25.4±7.4% | 5.5±1.9% | 368±74 nmol/g wet weight | 252±10 nmol/g wet weight | 34±13 nmol/g wet weight | occasional vacuolization but were otherwise normal | indistinguishable from those of the control animals | Iron-Clearing Efficiency (%) [2, 10]: 8.8 ± 2.4^c %; Iron-Clearing Efficiency (%) [4, 10]: 5.5 ± 1.9%; concentration at 0.5 h ([5]; male, Sprague-Dawley, rat, plasma, 0.5 h): 194 ± 60 µM; decrease of liver concentration from 0.5 h to 1 h [5]: 6%; liver concentration ([5]; 0.5 h): 339±35 nmol/g wet weight; drop in plasma concentration relative to 0.5 h ([5]; 1 h): 28%; drop in plasma concentration relative to 0.5 h ([5]; 2 h): 92%; kidney concentration ([5]; 2 h): 41±3 nmol/g wet weight; pancreas concentration ([5]; 2 h): ≈ 30 nmol/g wet weight; drop in plasma concentration relative to 0.5 h ([5]; 4 h): 97%; ICE of the polyether relative to that of the parent ligand [7]: 500%
3 | C[C@]1(C(=O)O)CSC(c2ncccc2O)=N1 [DFT, (S)-4,5-dihydro-2-(3-hydroxy-2-pyridinyl)-4-methyl-4-thiazolecarboxylic acid, reference compound] | severely nephrotoxic | – | – | – | – | – | – | – | – | – | ICE ([3]; iron-overloaded Cebus apella primate): 16%; ICE ([4]; bile duct-cannulated rodent model): 5.5%; cumulative formation constant [8]: 4e+29 M⁻¹
